{"source": "paper PMC9739695", "about": "“Water-Soluble Salts Based on Benzofuroxan Derivatives—Synthesis and Biological Activity” (International Journal of Molecular Sciences, 2022)", "key": {"[1]": {"test_system": "fungal microflora (mushrooms) on alfalfa seeds", "test": "Growth of fungal microflora on treated alfalfa seeds", "format": "cell-based", "protocol": "(§1) During phytopathological analyses of agricultural crops, the species composition of fungal and bacterial microflora was established. Laboratory studies were carried out on two nutrient media potato-agar (ingredients: potatoes—200 g; agar-agar—20 g; distilled water—1000 mL.) and potato-dextrose agar (ingredients: potatoes—200 g;dextrose—20 g; agar-agar—20 g; distilled water—1000 mL), according to the guidelines.\nWhen evaluating the effectiveness of treatment of wheat, alfalfa, barley, rice, and sorghum seeds as […], their effect on the suppression of seed infection was evaluated."}, "sorghum seeds": {"test_system": "sorghum seeds", "test": "Pre-sowing seed treatment, sowing qualities of sorghum seeds", "format": "in vivo", "details": "for germination energy: control 52.3; for laboratory germination: control 57", "protocol": "(§2) When evaluating the effectiveness of treatment of wheat, alfalfa, barley, rice, and sorghum seeds as fungicidal and bactericidal agents with preparation compounds at concentrations of 10, 20, and 40 mmol, their effect on the suppression of seed infection was evaluated.\n(§3) […] The sowing qualities were evaluated (germination energy for 3–4 days, laboratory germination for 7–8 days) according to GOST 12038-84 [60]. Sowing qualities of seeds were determined in wet chambers. According to the sample, 50 seeds were taken in 4-fold repetition."}, "SH-SY5Y (neuroblastoma)": {"test_system": "SH-SY5Y (neuroblastoma)", "test": "Cell viability, MTT test", "format": "cell-based, Human", "details": "Homo sapiens, SH-SY5Y, test range 0.1 to 100 μM, read-out: IC50 (concentration causing 50% inhibition of cell population growth)", "protocol": "(§4) In this work, the cytotoxic potential of the water-soluble salts based on benzofuroxan was determined by the effect of compounds on the survival of the cell tumor origin cultures (SH-SY5Y, Hep2, A549, HeLa) using the MTT test. To understand how the synthesized compounds can influence the healthy microenvironment in the body, the effect of substances on the viability of a normal Hek 293 cell culture was additionally evaluated.\n(§5) Human cell cultures of tumor origin—SH-SY5Y (neuroblastoma), HeLa (cervical tumor), Hep-2 (larynx carcinoma), A549 (adenocarcinomic human alveolar basal epithelial cells)—and normal cell line Hek 293 (human embryonic kidneys), provided by the Laboratory of Tumor Cell Genetics of the Scientific Research Institute of Carcinogenesis, N.N. Blokhin National Medical Research Center of Oncology, as well as the Institute of Cytology of the Russian Academy of Sciences, were grown in a nutrient medium DMEM (PanEco, Moscow, Russia) and MEM (PanEco, Moscow, Russia), containing fetal bovine serum (10% by volume) (ThermoFisher Scientific, Paisley, UK), Glutamax (2 mM) (Gibco, Scotland, UK), and penicillin-streptomycin (1% by volume) (PanEco, Moscow, Russia). The cultivation was carried out at 37 °C in a humidified CO2 atmosphere (5%).\n(§6) Cell viability was determined by MTT test. Cells were seeded in a 96-well plate in the amount of 1 × 10^4 cells/200µLof complete nutrient medium and cultured at 37 °C in CO2 (5%). After 24 h of incubation, various concentrations of test compounds in the range from 0.1 to 100 μM, were added to the cell cultures, and then the cells were cultured under the same conditions for 24 and 72 h. For each concentration, the experiment was carried out in triplicate.\n(§7) All compounds were dissolved in DMSO, then diluted with the medium to the required concentration. […] The DMSO was also added to the control wells in a volume of 1%. After the incubation time, MTT (3-(4,5-dimethylthiazol-2-yl)-2,5-diphenyltetrazolium bromide, 5 mg/mL) was added to each well and plates were additionally incubated for 2 h (until the characteristic color appeared).\n(§8) Using a plate analyzer (Cytation3, BioTech Instruments Inc., Winooski, VT, USA), the optical density was determined at 530 nm. The concentration value causing 50% inhibition of cell population growth (IC50) was determined from dose-dependent curves."}, "[2]": {"test_system": "bacterial microflora on rice seeds", "test": "Growth of bacterial microflora on treated rice seeds", "format": "cell-based", "protocol": "as §1, §2"}, "wheat seeds": {"test_system": "wheat seeds", "test": "Pre-sowing seed treatment, sowing qualities of wheat seeds", "format": "in vivo", "details": "for germination energy: control 82; for laboratory germination: control 85.7", "protocol": "as §2, §3"}, "[3]": {"test_system": "Hek 293 (human embryonic kidneys)", "test": "Cell viability, MTT test, normal cell line", "format": "cell-based", "details": "HEK293, Hek 293 normal cells, test range 0.1 to 100 μM, read-out: IC50 (concentration causing 50% inhibition of cell population growth)", "protocol": "as §4, §5, §6, §7, §8"}, "barley seeds": {"test_system": "barley seeds", "test": "Pre-sowing seed treatment, sowing qualities of barley seeds", "format": "in vivo", "details": "control 95.2", "protocol": "as §2, §3"}, "[4]": {"test_system": "bacterial microflora on barley seeds", "test": "Growth of bacterial microflora on treated barley seeds", "format": "cell-based", "protocol": "as §1, §2"}, "alfalfa seeds": {"test_system": "alfalfa seeds", "test": "Pre-sowing seed treatment, sowing qualities of alfalfa seeds", "format": "in vivo", "details": "control 76", "protocol": "as §2, §3"}, "Hep-2 (larynx carcinoma)": {"test_system": "Hep-2 (larynx carcinoma)", "test": "Cell viability, MTT test", "format": "cell-based", "details": "Homo sapiens, HEp-2, test range 0.1 to 100 μM, read-out: IC50 (concentration causing 50% inhibition of cell population growth)", "protocol": "as §4, §5, §6, §7, §8"}, "[5]": {"test_system": "A549 (adenocarcinomic human alveolar basal epithelial cells)", "test": "Cell viability, MTT test", "format": "cell-based", "details": "test range 0.1 to 100 μM, read-out: IC50 (concentration causing 50% inhibition of cell population growth)", "protocol": "as §4, §5, §6, §7, §8"}, "HeLa (cervical tumor)": {"test_system": "HeLa (cervical tumor)", "test": "Cell viability, MTT test", "format": "cell-based", "details": "Homo sapiens, test range 0.1 to 100 μM, read-out: IC50 (concentration causing 50% inhibition of cell population growth)", "protocol": "as §4, §5, §6, §7, §8"}, "rice seeds": {"test_system": "rice seeds", "test": "Pre-sowing seed treatment, sowing qualities of rice seeds", "format": "in vivo", "details": "for germination energy: control 71.4; for laboratory germination: control 95.2", "protocol": "as §2, §3"}}, "note": "Read-outs that look alike come from different tables or passages of the source."}
{"smiles": "O=[N+]([O-])c1c(Cl)cc2c(no[n+]2[O-])c1NCCN1CCOCC1", "note": "[4d, 6-chloro-4-(2-(morpholino-4-ium)ethylamino)-5-nitrobenzo[c][1,2,5]oxadiazole 1-oxide chloride]", "values": [{"measurement": "effect on fungal microflora", "setting": "[1]; 10 mmol", "value": "positive effect on the suppression of fungal microflora"}, {"measurement": "effect on fungal microflora", "setting": "[1]; 20 mmol", "value": "positive effect on the suppression of fungal microflora"}, {"measurement": "germination energy", "setting": "sorghum seeds; 10 mmol", "value": 33.3, "unit": "%"}, {"measurement": "laboratory germination", "setting": "sorghum seeds; 10 mmol", "value": 40, "unit": "%"}, {"measurement": "sowing qualities of seeds compared with control", "setting": "sorghum seeds; 20 mmol", "value": "higher than in the control"}, {"measurement": "germination energy", "setting": "sorghum seeds; 20 mmol", "value": 76.1, "unit": "%"}, {"measurement": "laboratory germination", "setting": "sorghum seeds; 20 mmol", "value": 80.9, "unit": "%"}, {"measurement": "germination energy", "setting": "sorghum seeds; 40 mmol", "value": 58.5, "unit": "%"}, {"measurement": "laboratory germination", "setting": "sorghum seeds; 40 mmol", "value": 61.5, "unit": "%"}, {"measurement": "IC50", "setting": "SH-SY5Y (neuroblastoma); incubation 24 h", "value": "24.3 ± 1.91", "unit": "µM"}, {"measurement": "IC50", "setting": "SH-SY5Y (neuroblastoma); incubation 72 h", "value": "22.8 ± 1.9", "unit": "µM"}, {"measurement": "effect on bacterial microflora", "setting": "[2]; 10 mmol", "value": "positive effect on the suppression of bacterial microflora"}, {"measurement": "effect on bacterial microflora", "setting": "[2]; 20 mmol", "value": "positive effect on the suppression of bacterial microflora"}, {"measurement": "germination energy", "setting": "wheat seeds; 10 mmol", "value": 47.6, "unit": "%"}, {"measurement": "laboratory germination", "setting": "wheat seeds; 10 mmol", "value": 47.6, "unit": "%"}, {"measurement": "germination energy", "setting": "wheat seeds; 20 mmol", "value": 71.4, "unit": "%"}, {"measurement": "laboratory germination", "setting": "wheat seeds; 20 mmol", "value": 71.4, "unit": "%"}, {"measurement": "sowing qualities of seeds compared with control", "setting": "wheat seeds; 40 mmol", "value": "higher than in the case of controls"}, {"measurement": "germination energy", "setting": "wheat seeds; 40 mmol", "value": 98, "unit": "%"}, {"measurement": "laboratory germination", "setting": "wheat seeds; 40 mmol", "value": 98.5, "unit": "%"}, {"measurement": "IC50", "setting": "[3]; incubation 24 h", "value": "40.8 ± 2.84", "unit": "µM"}, {"measurement": "IC50", "setting": "[3]; incubation 72 h", "value": "28.1 ± 0.93", "unit": "µM"}, {"measurement": "germination energy", "setting": "barley seeds; 10 mmol", "value": 71.4, "unit": "%"}, {"measurement": "laboratory germination", "setting": "barley seeds; 10 mmol", "value": 71.4, "unit": "%"}, {"measurement": "germination energy", "setting": "barley seeds; 20 mmol", "value": 66.6, "unit": "%"}, {"measurement": "laboratory germination", "setting": "barley seeds; 20 mmol", "value": 66.6, "unit": "%"}, {"measurement": "germination energy", "setting": "barley seeds; 40 mmol", "value": 95, "unit": "%"}, {"measurement": "laboratory germination", "setting": "barley seeds; 40 mmol", "value": 98.5, "unit": "%"}, {"measurement": "effect on bacterial microflora", "setting": "[4]; 10 mmol", "value": "slight suppression of the bacterial microflora"}, {"measurement": "effect on bacterial microflora", "setting": "[4]; 40 mmol", "value": "slight suppression of the bacterial microflora"}, {"measurement": "germination energy", "setting": "alfalfa seeds; 10 mmol", "value": 43.3, "unit": "%"}, {"measurement": "laboratory germination", "setting": "alfalfa seeds; 10 mmol", "value": 50, "unit": "%"}, {"measurement": "germination energy", "setting": "alfalfa seeds; 20 mmol", "value": 63.3, "unit": "%"}, {"measurement": "laboratory germination", "setting": "alfalfa seeds; 20 mmol", "value": 73.3, "unit": "%"}, {"measurement": "germination energy", "setting": "alfalfa seeds; 40 mmol", "value": 78, "unit": "%"}, {"measurement": "laboratory germination", "setting": "alfalfa seeds; 40 mmol", "value": 80.5, "unit": "%"}, {"measurement": "IC50", "setting": "Hep-2 (larynx carcinoma); Hep2, incubation 24 h", "value": "91.3 ± 1.4", "unit": "µM"}, {"measurement": "IC50", "setting": "Hep-2 (larynx carcinoma); Hep2, incubation 72 h", "value": "89.9 ± 3.12", "unit": "µM"}, {"measurement": "IC50", "setting": "[5]; A549, incubation 24 h", "value": "> 100", "unit": "µM"}, {"measurement": "IC50", "setting": "[5]; A549, incubation 72 h", "value": "98.21 ± 0.1", "unit": "µM"}, {"measurement": "IC50", "setting": "HeLa (cervical tumor); incubation 24 h", "value": "40.5 ± 1.9", "unit": "µM"}, {"measurement": "IC50", "setting": "HeLa (cervical tumor); incubation 72 h", "value": "35.47 ± 0.12", "unit": "µM"}, {"measurement": "germination energy", "setting": "rice seeds; 10 mmol", "value": 52.3, "unit": "%"}, {"measurement": "laboratory germination", "setting": "rice seeds; 10 mmol", "value": 52.3, "unit": "%"}, {"measurement": "germination energy", "setting": "rice seeds; 20 mmol", "value": 47.6, "unit": "%"}, {"measurement": "laboratory germination", "setting": "rice seeds; 20 mmol", "value": 95.2, "unit": "%"}, {"measurement": "sowing qualities of seeds compared with control", "setting": "rice seeds; 40 mmol", "value": "better results than the control"}, {"measurement": "germination energy", "setting": "rice seeds; 40 mmol", "value": 99, "unit": "%"}, {"measurement": "laboratory germination", "setting": "rice seeds; 40 mmol", "value": 99, "unit": "%"}]}
